Results as given in US20150225369A1, “DDR2 INHIBITORS FOR THE TREATMENT OF OSTEOARTHRITIS” (Merck Patent GmbH, priority 2012, published 2015).

Molecular target: T1, HEK293 transfected with human DDR2 (Homo sapiens, UniProt Q16832)
T1 construct: expressed in transfected cells; host or cells: HEK293 (PLT460F_(DDR2)-P7-1)
T1 sequence (Q16832 22-855): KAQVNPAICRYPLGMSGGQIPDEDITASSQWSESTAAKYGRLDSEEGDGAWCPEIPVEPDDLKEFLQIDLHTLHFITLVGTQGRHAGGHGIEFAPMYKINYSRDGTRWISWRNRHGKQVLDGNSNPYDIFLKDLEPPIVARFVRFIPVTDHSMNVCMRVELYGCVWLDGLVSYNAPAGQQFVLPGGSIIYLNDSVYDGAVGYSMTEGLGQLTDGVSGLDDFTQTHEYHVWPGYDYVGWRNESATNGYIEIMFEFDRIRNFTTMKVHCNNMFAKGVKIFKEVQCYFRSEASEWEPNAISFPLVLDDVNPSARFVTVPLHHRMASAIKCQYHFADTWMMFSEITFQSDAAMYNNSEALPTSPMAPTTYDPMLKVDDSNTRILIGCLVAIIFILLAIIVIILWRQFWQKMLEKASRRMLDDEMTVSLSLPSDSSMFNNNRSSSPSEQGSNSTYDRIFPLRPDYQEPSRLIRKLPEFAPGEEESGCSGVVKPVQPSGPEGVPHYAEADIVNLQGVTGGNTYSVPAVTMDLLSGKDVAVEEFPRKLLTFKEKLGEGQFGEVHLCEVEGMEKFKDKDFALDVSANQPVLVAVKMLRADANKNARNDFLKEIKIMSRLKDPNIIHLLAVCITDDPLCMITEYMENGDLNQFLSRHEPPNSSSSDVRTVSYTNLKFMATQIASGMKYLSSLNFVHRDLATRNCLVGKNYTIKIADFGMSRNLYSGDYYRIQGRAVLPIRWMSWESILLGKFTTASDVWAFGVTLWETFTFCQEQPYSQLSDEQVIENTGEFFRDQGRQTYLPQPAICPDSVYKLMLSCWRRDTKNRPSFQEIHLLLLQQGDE
Assay: Phospho-DDR2 cellular assay (collagen II induced DDR2 phosphorylation, ELISA)
Format: cell-based
Conditions: HEK293 transfected with human DDR2, 50 μg/ml chicken collagen II, 16 h; read-out: IC50 [p-DDR2]
Summary of the method: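 Cells seeded 48 h in 10% FBS, serum-starved 8 h, then given compound (5% DMSO) with 50 μg/ml chicken collagen II for 16 h at 37 °C. Lysates captured on anti-DDR2 antibody plates; phospho-DDR2 detected with HRP anti-phosphotyrosine antibody by chemiluminescence.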

| Structure (SMILES) | IC50 |
| --- | --- |
| Cc1cc(Oc2ccc(CNC(=O)Nc3cc(C(F)(F)F)cn(C)c3=O)cc2C)ccn1 [compound 6] | 30 nM |
| COc1ncc(C)cc1NC(=O)NCc1ccc(Oc2ccncc2)cc1 [compound 18] | 30 nM |
| CNC(=O)c1cc(Oc2ccc(CNC(=O)Nc3cc(C)cnc3OC)cc2)ccn1 [compound 19] | 24 nM |
| CNC(=O)c1cc(Oc2ccc(CNC(=O)Nc3cc(C(F)(F)F)cn(C)c3=O)cc2)ccn1 [compound 8] | 28 nM |
| CNC(=O)c1cc(Oc2ccc(CNC(=O)Nc3cc(Cl)cnc3OC)cc2)ccn1 [compound 21] | 14 nM |
| CNC(=O)c1cc(Oc2ccc(CNC(=O)Nc3cc(C(F)(F)F)cn(C)c3=O)cc2C)ccn1 [compound 7] | 12 nM |

Second part, the compound after the results:

| IC50 | Structure (SMILES) |
| --- | --- |
| 60 nM | Cc1cc(Oc2ccc(CNC(=O)Nc3cc(C(F)(F)F)cnc3Cl)cc2C)ccn1 [compound 30] |
| 17 nM | COc1ncc(Cl)cc1NC(=O)NCc1ccc(Oc2ccnc(C)c2)c(C)c1 [compound 28] |
| 6.8 nM | CNC(=O)c1cc(Oc2ccc(CNC(=O)Nc3cc(Cl)cnc3OC)cc2C)ccn1 [compound 23] |
| 43 nM | CNC(=O)c1cc(Oc2ccc(CNC(=O)Nc3cc(C(F)(F)F)cnc3Cl)cc2C)ccn1 [compound 26] |
